Test results taken from the CheMixHub viscosity set.
Values joined by “and” are separate entries in the source; they are usually repeats but may differ in a detail not shown here. Equal entries are not always repeated.

Assay: xn = mol fraction of the nth substance listed

CC(C)C[C@H](NC(=O)[C@H](C)N)C(=O)O + O
viscosity [mPa·s], 101 kPa
Settings | x1 = 3.33e-05 | x1 = 7.01e-05 | x1 = 0.000104 | x1 = 0.000146 | x1 = 0.000174 | x1 = 0.0002197 | x1 = 0.0002561 | x1 = 0.0002862 | x1 = 0.0003157 | x1 = 0.0003701
305.15 K | 0.7759 | 0.7781 | 0.7785 | 0.7806 | 0.7826 | 0.7869 | 0.796 | 0.8042 | 0.8098 | 0.8149
310.15 K | 0.7079 | 0.7086 | 0.7126 | 0.7129 | 0.7165 | 0.7198 | 0.7242 | 0.7292 | 0.7334 | 0.7359
315.15 K | 0.6492 | 0.6505 | 0.6525 | 0.6559 | 0.6596 | 0.6605 | 0.6629 | 0.6678 | 0.6692 | 0.6709

CCC[n+]1ccn(C)c1.N[C@@H](CO)C(=O)[O-] + O
Settings | viscosity [mPa·s]
308.15 K, 100 kPa, x2 = 0.0574 | 996.5

CC[NH+](C)CC.CS(=O)(=O)[O-] + O
Settings | viscosity [mPa·s]
318.15 K, 100 kPa, x1 = 0.4263 | 15.65

O=S(=O)(O)O + O
100 kPa
Settings | viscosity [mPa·s]
303.15 K, x1 = 0.007147 | 0.8615
313.15 K, x1 = 0.0566 | 1.125

CCOC=O + O=C1CCCO1
298.15 K, 101.33 kPa
Settings | viscosity [mPa·s]
x1 = 0.0501 | 1.571
x1 = 0.0994 | 1.446
x1 = 0.1504 | 1.333
x1 = 0.2017 | 1.23
x1 = 0.2492 | 1.143
x1 = 0.3001 | 1.057
x1 = 0.4017 | 0.895
x1 = 0.4509 | 0.845
x1 = 0.503 | 0.783
x1 = 0.5488 | 0.732
x1 = 0.6028 | 0.677
x1 = 0.7138 | 0.576
x1 = 0.7502 | 0.547
x1 = 0.7894 | 0.51
x1 = 0.8503 | 0.47
x1 = 0.9 | 0.439
x1 = 0.9501 | 0.412

O=S(=O)(O)O + O=[N+]([O-])c1ccccc1
303.15 K, 101 kPa
Settings | viscosity [mPa·s]
x1 = 0.2497 | 3.5
x1 = 0.4023 | 5.75
x1 = 0.562 | 9.38
x1 = 0.656 | 12.28
x1 = 0.6792 | 12.94
x1 = 0.7132 | 13.56
x1 = 0.796 | 16.17
x1 = 0.8755 | 18.31
x1 = 0.9516 | 18.96
x1 = 0.9542 | 18.56
x1 = 0.9702 | 19.68
x2 = 0.0128 | 19.92

CCNc1ccccc1 + Oc1ccccc1
viscosity [mPa·s], 101 kPa
Settings | 298.15 K | 313.15 K | 323.15 K
x1 = 0.0794 | 8.63 | 4.35 | 3.14
x1 = 0.1373 | 8.82 | 4.53 | 3.16
x1 = 0.206 | 8.53 | 4.34 | 3.06
x1 = 0.2495 | 8.18 | 4.26 | 3.13
x1 = 0.3418 | 7.28 | 3.96 | 2.97
x1 = 0.4372 | 5.98 | 3.41 | 2.54
x1 = 0.5 | 5.1 | 2.99 | 2.15
x1 = 0.5381 | 4.77 | 2.78 | 2.1
x1 = 0.6445 | 3.68 | 2.31 | 1.76
x1 = 0.7005 | 3.27 | 2.06 | 1.62
x1 = 0.7565 | 2.9 | 1.88 | 1.54
x1 = 0.8744 | 2.22 | 1.55 | 1.24

CC(=O)O + c1ccccc1
Settings | viscosity
293.15 K, 101 kPa, x1 = 0.2158 | 0.658 mPa·s
293.15 K, 101 kPa, x1 = 0.3643 | 0.684 mPa·s
293.15 K, 101 kPa, x1 = 0.4322 | 0.67 mPa·s
293.15 K, 101 kPa, x1 = 0.5213 | 0.684 mPa·s
293.15 K, 101 kPa, x1 = 0.7321 | 0.723 mPa·s
293.15 K, 101 kPa, x1 = 0.9233 | 0.808 mPa·s
298.1 K, 101 kPa, x1 = 0.2 | 0.598 mPa·s
298.1 K, 101 kPa, x1 = 0.4 | 0.617 mPa·s
298.1 K, 101 kPa, x1 = 0.5 | 0.636 mPa·s
298.1 K, 101 kPa, x1 = 0.6 | 0.672 mPa·s
298.1 K, 101 kPa, x1 = 0.8 | 0.802 mPa·s
298.15 K, 101 kPa, x1 = 0.2158 | 0.632 mPa·s
298.15 K, 101 kPa, x1 = 0.3643 | 0.661 mPa·s
298.15 K, 101 kPa, x1 = 0.4322 | 0.65 mPa·s
298.15 K, 101 kPa, x1 = 0.5213 | 0.663 mPa·s
298.15 K, 101 kPa, x1 = 0.7321 | 0.668 mPa·s
298.15 K, 101 kPa, x1 = 0.9233 | 0.716 mPa·s
298.15 K, 101.33 kPa, x2 = 0.1 | 0.9008 mPa·s
298.15 K, 101.33 kPa, x2 = 0.1339 | 0.893 mPa·s
298.15 K, 101.33 kPa, x2 = 0.25 | 0.7374 mPa·s and 0.754 mPa·s
298.15 K, 101.33 kPa, x2 = 0.2921 | 0.734 mPa·s
298.15 K, 101.33 kPa, x2 = 0.4 | 0.655 mPa·s
298.15 K, 101.33 kPa, x2 = 0.4179 | 0.666 mPa·s
298.15 K, 101.33 kPa, x2 = 0.5 | 0.6298 mPa·s and 0.653 mPa·s
298.15 K, 101.33 kPa, x2 = 0.7231 | 0.597 mPa·s
298.15 K, 101.33 kPa, x2 = 0.75 | 0.5983 mPa·s
298.15 K, 101.33 kPa, x2 = 0.7711 | 0.596 mPa·s
298.15 K, 101.33 kPa, x2 = 0.8704 | 0.591 mPa·s
298.15 K, 101.33 kPa, x2 = 0.9645 | 0.594 mPa·s
303.15 K, 101 kPa, x1 = 0.2158 | 0.61 mPa·s
303.15 K, 101 kPa, x1 = 0.3643 | 0.628 mPa·s
303.15 K, 101 kPa, x1 = 0.4322 | 0.624 mPa·s
303.15 K, 101 kPa, x1 = 0.5213 | 0.642 mPa·s
303.15 K, 101 kPa, x1 = 0.7321 | 0.653 mPa·s
303.15 K, 101 kPa, x1 = 0.9233 | 0.71 mPa·s
303.15 K, 101 kPa, x2 = 0.1603 | 0.8519 mPa·s
303.15 K, 101 kPa, x2 = 0.39 | 0.6887 mPa·s
303.15 K, 101 kPa, x2 = 0.7224 | 0.5822 mPa·s
313.15 K, 101 kPa, x2 = 0.1603 | 0.7841 mPa·s
313.15 K, 101 kPa, x2 = 0.39 | 0.6245 mPa·s
313.15 K, 101 kPa, x2 = 0.7224 | 0.5111 mPa·s
323.15 K, 101 kPa, x2 = 0.1603 | 0.7112 mPa·s
323.15 K, 101 kPa, x2 = 0.39 | 0.5776 mPa·s
323.15 K, 101 kPa, x2 = 0.7224 | 0.4939 mPa·s

CCOC=O + c1ccccc1
viscosity [mPa·s], 101 kPa
Settings | x1 = 0.2 | x1 = 0.4 | x1 = 0.5 | x1 = 0.8
293.15 K | 0.558 | 0.501 | 0.482 | 0.435
303.15 K | 0.491 | 0.446 | 0.43 | 0.391
308.15 K | 0.465 | 0.427 | 0.409 | 0.373

ClCCCl + c1ccccc1
101 kPa
Settings | viscosity [mPa·s]
293.15 K, x2 = 0.09 | 0.7903
293.15 K, x2 = 0.2 | 0.7512
293.15 K, x2 = 0.3 | 0.7172
293.15 K, x2 = 0.392 | 0.6824
293.15 K, x2 = 0.525 | 0.6583
293.15 K, x2 = 0.577 | 0.6545
293.15 K, x2 = 0.683 | 0.634
293.15 K, x2 = 0.81 | 0.636
293.15 K, x2 = 0.9 | 0.6404
298.15 K, x2 = 0.2 | 0.686
298.15 K, x2 = 0.4 | 0.634
298.15 K, x2 = 0.6 | 0.601
298.15 K, x2 = 0.8 | 0.59
313.15 K, x2 = 0.09 | 0.6098
313.15 K, x2 = 0.2 | 0.5936
313.15 K, x2 = 0.525 | 0.5387
313.15 K, x2 = 0.81 | 0.508
